Laboratory results published in US20100105680A1, “SUBSTITUTED DIMETHYLCYCLOBUTYL COMPOUNDS, THEIR PREPARATION AND USE IN MEDICAMENTS” (priority 2006, published 2010).

Biological target: T1, sigma-1 receptor (Cavia porcellus, UniProt Q60492)
T1 construct: guinea pig brains were homogenized; from tissue; host or cells: guinea pig brain membranes
Experiment: Sigma-1 receptor binding ([3H]-(+)-pentazocine, brain membranes)
Conditions: [3H]-(+)-pentazocine 0.5 nM, guinea pig brain membranes; for inhibition at 0.01 µM: compound concentration 0.0100 μM, read-out: Percent Inhibition Percent Concentration (μM) 0.0100 SIGMA-1 receptor; for inhibition at 0.1 µM: compound concentration 0.1000 μM, read-out: Percent Inhibition Percent Concentration (μM) 0.1000 SIGMA-1 receptor
Method: Brain membrane preparation and binding assays for the sigma-1 receptor were performed as described (DeHaven-Hudkins et al., Characterization of the binding of [^3H]-(+)-pentazocine to recognition sites in guinea pig brain, Eur. J. Pharmacol. 227, 371-378) with some modifications.
In brief, guinea pig brains were homogenized in 10 vols. (w/v) of Tris-HCl 50 mM, 0.32 M sucrose, pH 7.4, with a Kinematica Polytron PT 3000 at 15000 r.p.m. for 30 s. The homogenate was centrifuged at 1000 g for 10 min at 4° C. and the supernatants collected and centrifuged again at 48000 g for 15 min at 4° C. The pellet was resuspended in 10 volumes of Tris-HCl buffer (50 mM, pH 7.4), incubated at 37° C. for 30 min, and centrifuged at 48000 g for 20 min at 4° C. Following this, the pellet was resuspended in fresh Tris-HCl buffer (50 mM, pH 7.4) and stored on ice until use.
Each assay tube contained 10 μL of [^3H]-(+)-pentazocine (final concentration of 0.5 nM), 900 μL of the tissue suspension to a final assay volume of 1 mL and a final tissue concentration of approximately 30 mg tissue net weight/mL. Non-specific binding was defined by addition of a final concentration of […] haloperidol. All tubes were incubated at 37° C. for 150 min before termination of the reaction by rapid filtration over Schleicher & Schuell GF 3362 glass fibre filters [previously soaked in a solution of 0.5% polyethylenimine for at least 1 h]. Filters were then washed with four times with 4 mL of cold Tris-HCl buffer (50 mM, pH 7.4). Following addition of scintillation cocktail, the samples were allowed to equilibrate overnight. The amount of bound radioactivity was determined by liquid scintillation spectrometry using a Wallac Winspectral 1414 liquid scintillation counter. Protein concentrations were determined by the method of Lowry et al. (Protein measurement with the Folin phenol reagent, J. Biol. Chem, 193, 265).
The binding of the compounds of the present invention to sigma-1 receptors was tested as described above.

T1 sequence (Q60492 whole entry): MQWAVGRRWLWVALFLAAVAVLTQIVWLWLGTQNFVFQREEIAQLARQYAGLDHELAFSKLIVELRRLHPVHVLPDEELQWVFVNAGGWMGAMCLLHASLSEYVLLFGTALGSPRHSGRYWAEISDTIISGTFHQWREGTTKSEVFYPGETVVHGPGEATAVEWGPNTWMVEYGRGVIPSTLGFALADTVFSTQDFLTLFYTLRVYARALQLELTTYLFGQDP

Row | Structure (SMILES) | inhibition at 0.01 µM [%] | inhibition at 0.1 µM [%] | Ki [nM]
1 | CC1(C)[C@H](CCOCc2ccccc2)C[C@@H]1CN1CCC(c2ccccc2)CC1 [compound 3] | 30.2 | 97.7 | 
2 | CC1(C)[C@@H](CCO)C[C@H]1CN1CCOCC1 [compound 19] | 17.1 | 42.3 | 
3 | CN1CCN(C[C@@H]2C[C@H](CCOCc3ccccc3)C2(C)C)CC1 [compound 34] | 92.3 | 96.2 | 3.6
4 | CC1(C)[C@@H](CCN2CCCC(c3ccccc3)C2)C[C@H]1CN1CCOCC1 (some centres unmarked) [compound 40] | 16.3 | 60.1 | 
5 | CC1(C)[C@@H](CCOCc2ccccc2)C[C@H]1CN1CCOCC1 [compound 31] | 89.9 | 101 | 1.7
6 | CC1(C)[C@@H](COCc2ccccc2)C[C@H]1CN1CCC(c2ccccc2)CC1 [compound 8] | 48.3 | 101 | 10.9
7 | CN1CCN(C[C@@H]2C[C@H](COCc3ccccc3)C2(C)C)CC1 [compound 10] | 86.7 | 99.5 | 0.95
8 | CC1(C)[C@H](CCO)C[C@@H]1CN1CCOCC1 [compound 20] | 31.5 | 63.1 | 
9 | CC1(C)[C@@H](CCOCc2ccccc2)C[C@H]1CN1CCSCC1 [compound 30] | 74 | 91.8 | 1
10 | CC1CCN(C[C@@H]2C[C@H](CCO)C2(C)C)CC1 [compound 21] | 25.7 | 77.1 | 
11 | CC1(C)[C@H](CCOCc2ccccc2)C[C@@H]1CN1CCOCC1 [compound 1] | 62.8 | 79.7 | 6.1
12 | CC1(C)[C@@H](CCN2CCC(Cc3ccccc3)CC2)C[C@H]1CN1CCOCC1 [compound 42] | 19.7 | 88 | 
13 | CC1CCN(C[C@@H]2C[C@H](CCOCc3ccccc3)C2(C)C)CC1 [compound 28] | 93.5 | 100 | 5
14 | CC1(C)[C@@H](CCOCc2ccccc2)C[C@H]1CN1CCC(c2ccccc2)CC1 [compound 29] | 76.9 | 95.6 | 16.6
15 | CC1(C)[C@@H](CCN2CCc3ccccc3C2)C[C@H]1CN1CCOCC1 [compound 47] | 36.8 | 92 | 
16 | CC1(C)[C@@H](COCc2ccccc2)C[C@H]1CN1CCOCC1 [compound 6] | 91 | 98.4 | 1.3

Other lines, results leading:

Row | inhibition at 0.01 µM [%] | inhibition at 0.1 µM [%] | Ki [nM] | Structure (SMILES)
17 | -0.6 | 52.6 |  | CC1(C)[C@@H](CCN2CCC(Cc3ccccc3)CC2)C[C@H]1CN1CCCCC1 [compound 52]
18 | 88.6 | 98.5 | 1.2 | CC1(C)[C@H](COCc2ccccc2)C[C@@H]1CCN1CCCCC1 [compound 38]
19 | 96.5 | 104 | 1.1 | CC1(C)[C@@H](CCOCc2ccccc2)C[C@H]1CN1CCCCC1 [compound 27]
20 | 66.5 | 95.9 | 1.5 | CC1(C)[C@H](CCOCc2ccccc2)C[C@@H]1CN1CCCCC1 [compound 2]
21 | 94.5 | 101 | 0.79 | CC1(C)[C@@H](COCc2ccccc2)C[C@H]1CN1CCCCC1 [compound 7]
22 | 5.5 | 44.1 |  | CC(O)[C@@H]1C[C@H](CCN2CCCCC2)C1(C)C (some centres unmarked) [compound 12]
23 | 23.9 | 50 |  | COC(=O)C[C@H]1C[C@@H](CN2CCCCC2)C1(C)C [compound 26]
24 | 2 | 20.9 |  | CC1(C)[C@@H](CCn2cncn2)C[C@H]1CN1CCCCC1 [compound 50]
25 | 34.3 | 72.4 |  | CC1(C)[C@@H](CCn2ccnc2)C[C@H]1CN1CCCCC1 [compound 48]
26 | 42.2 | 87.1 | 11.7 | CC1(C)[C@@H](CCN2CCc3ccccc3C2)C[C@H]1CN1CCCCC1 [compound 54]
27 | 10.3 | 28.4 |  | CC1(C)[C@@H](CCn2cncn2)C[C@H]1CN1CCOCC1 [compound 45]
28 | 97.5 | 96.4 | 2.2 | CC1(C)[C@@H](CCOc2ccccc2)C[C@H]1CN1CCCCC1 [compound 16]
